From patent US20220288277A1, “SURFACE COATINGS AND IMPLANTABLE DEVICES COMPRISING DIMERIC STEROID PRODRUGS, AND USES THEREOF” (Ripple Therapeutics Corporation, priority 2019, published 2022)

Experiments:
[1] = In vitro drug release profiles from coated discs; type: physicochemical; settings: coated discs (FIG. 18B)
[2] = Drug release from coated surfaces and extruded cylinders in PBS at 37 C, monitored by HPLC; type: physicochemical
Excerpt: As stated herein, “t50” is the time at which 50% of the releasable drug has been released from a surface coating or drug depot of the disclosure. Time t10 is, correspondingly, the time at which 10% of the releasable drug has been released from a surface coating or drug depot of the disclosure. When the release curve is perfectly linear, t10=⅕ of t50. When there is an initial burst of released drug, t10 is much less than ⅕ of t50. In the compositions and methods of the disclosure t10 can be equal to or greater than 1/10 of t50. Drug release from a surface coating, drug depot, or compound of the disclosure can be measured at 37° C. in 100% bovine serum, or at 37° C. in PBS (phosphate buffered saline), as described in Example 1.
Different substrates including poly(styrene-block-isobutylene-block-styrene) (SIBS) films, titanium coupons, and fibrous Dacron (polyethylene terephthalate) meshes (FIG. 2A) were coated with compound 1 from acetone by drop coating (FIG. 2B) forming an amorphous (glassy) coating. […] The bottom of a glass vial was coated with compound 1 and dexamethasone from dichloromethane (DCM) using the drop coating method.
Compound 2 was dissolved in DCM and was drop coated onto the bottom of a glass vial and solvent was evaporated to form the surface coating. Drug release was carried out in PBS at 37 C with buffer changes and was monitored by HPLC.
Compound 3 was dissolved in DCM and was drop coated onto the bottom of a glass vial and solvent was evaporated to form the surface coating. Drug release was carried out in PBS at 37 C with buffer changes and was monitored by HPLC.
Compound 1 was formed into cylinders by heat extrusion from the intermediate glassy state by pre-melting compound 1 prior to extrusion. In vitro drug release was carried out in PBS at 37 C and drug release was quantified by HPLC. […] The cylinders can be used as a drug depot within a medical device or injected adjacent to the medical device to release dexamethasone.

[3] = Drug release from injectable cylinders in the subcutaneous tissue of rats; type: in vivo, male Sprague Dawley rats; settings: cylinders 23G-32G, 2 mm, subcutaneous with suture, 7 and 28 days
Experimental: Cylinders of Compound 1 in various diameters (23G-32G) and 2 mm in length were processed as described in Example 1 and were loaded into needles with a piece of medical sutures as shown in FIG. 21A. The loaded needles were sterilized by ethylene oxide gas. The cylinders and sutures were injected into the dorsal subcutaneous space of male Sprague Dawley rats with starting weights of 100-124 g (Envigo, Frederick, Md. USA). Animals were euthanized at 7 and 28 days and the skin surrounding the injection sites were dissected. Pellet drug content at each time point was calculated from in-situ image analysis, confirmed by HPLC, and was plotted as cumulative drug release from the cylinders (FIG. 21C).

[4] = Ethylene oxide (ETO) gas sterilization of coated fibrous Dacron meshes, purity and drug release pre- and post-ETO; type: physicochemical; settings: ETO gas at 55° C.
Experimental: Compound 1 coated onto fibrous Dacron meshes were sterilized by ethylene oxide (ETO) gas at a temperature of 55° C. […] Drug release was carried out in PBS at 37 C.

[5] = test system: device related foreign body reaction in the rat subcutaneous model; test: Rat study of coated substrates, morphometric image analysis of CD68 stained cross-sections; type: in vivo, female Wistar rats; settings: spray coated thin films or drop coated discs, days 3 and 7, compared to non-coated substrates
Experimental: Compound 1 was dissolved in acetone and spray coated onto thin films of a polymeric substrate or drop coated onto discs of a different polymeric substrate. Both coatings were dried at ambient conditions over night and sterilized using Ethylene oxide (ETO) gas. Coated substrates were then implanted into the dorsal subcutaneous space in female Wistar rats with starting weights of 250-290 g. Animals were euthanized at the peak of inflammatory phase in days 3 and 7. The cells in the surrounding area of both substrates were assessed by morphometric image analysis on cross-section of excised substrates with associated tissue that were stained for CD68 (inflammatory cell marker), ASMA (fibroblast marker) and DAPI ([…]). The number of recruited CD68 positive cells were reduced in response to both substrates coated with compound 1 compared to non-coated substrates. Thus, compound 1 suppresses inflammation in device related foreign body reaction and fibrosis in the rat subcutaneous model regardless of coating method or substrate.

[6] = test system: device related fibrosis; test: Rat study of coated polymeric discs, collagenous capsule wall thickness (Masson's Trichrome); type: in vivo, female Wistar rats; settings: drop coated discs, subcutaneous, day 7 and day 21, versus non-coated implants
Excerpt: The coatings were dried at ambient conditions over night and sterilized using Ethylene oxide (ETO) gas. Coated substrates were then implanted into the dorsal subcutaneous space in female Wistar rats with starting weights of 250-290 g. Animals were euthanized at day 7 (inflammatory phase) and day 21 (fibrotic phase) to assess the tissue response to coated versus non-coated implants. The thickness of the collagenous capsule wall surrounding the implant was quantified by morphometric image analysis on cross-section of excised capsules with associated tissue that were stained with Masson's Trichrome.

[7] = Drug release profiles of heat press versus spray coated surface coatings; type: physicochemical; settings: similar drug densities (8.2-8.3 μg/mm^2)
Experimental: Drug release profiles from Compound 1 surface coatings with similar drug densities (8.2-8.3 μg/mm^2) formed from the heat press process and spray coating process were similar (FIG. 16B), confirming that drug release is a material property and not influenced by coating technique.

[8] = test system: skin surrounding the injection sites; test: Rat study with spray coated substrates injected into the dorsal subcutaneous space; type: in vivo, male SD rats; settings: highest coating amount (23.3 μg dexamethasone), day 14
Experimental: Coatings of Compound 1 in various dexamethasone amounts (1.4-23.3 μg) were spray coated onto substrates as described in Example 4 and sterilized by ETO gas. Coated substrates were injected into the dorsal subcutaneous space of male SD rats with starting weights of 100-124 g (Envigo, Frederick, Md. USA). Animals were euthanized at 0, 3, 7 and 14 days and the skin surrounding the injection sites dissected. Coating remaining at each time point was quantified by HPLC.

[9] = Coating retention / drug release from coated substrates in 100% FBS at 37 C, HPLC; type: physicochemical
Experimental: Compound 1 was drop coated with the same total amount of compound 1 from an organic solution (acetone) onto SIBS films, Dacron films, and fibrous Dacron meshes, and drug release was carried out in 100% FBS at 37 C. The coating was extracted from the substrates at different time points and was plotted as a percentage of coating retained over time (FIG. 4).
Substrates coated with Compound 1 by drop coating or spray coating were incubated in fetal bovine serum (FBS) to determine the amount of Compound 1 retained over time. Each coated substrate was placed in a glass vial containing 4 mL FBS and incubated at 37° C. on a rotating platform. After 1 to 4 days, the remaining coating was extracted and was determined by HPLC (FIG. 9). The amount of Compound 1 retained following 1-day incubation in FBS ranged from 15 to 100% of the initial amount loaded and roughly correlated with thickness (total loading) of the coating.
Drug release was carried out in 100% FBS and agitation at 37 C with buffer changes and was monitored by HPLC.

Compound	In vitro drug release profile [1]	Drug release mechanism from extruded cylinders ([2]; cylinders extruded with 23G and 30G nozzles, PBS at 37 C)	Drug release from the coated surfaces ([2]; drop coated on SIBS, titanium, Dacron mesh, glass, PBS at 37 C)	Cumulative drug release from the cylinders in vivo [3]	Coating purity pre- and post-ETO sterilization ([4]; fibrous Dacron meshes, HPLC)	Drug release pre- and post-ETO sterilization ([4]; release in PBS at 37 C)	Number of recruited CD68 positive cells [5]	Capsule wall diameter (fibrotic layer thickness) [6]	Drug release profiles, heat press process versus spray coating process [7]	Skin observation around the coated substrate [8]	Coating retained over time ([9]; drop coated on SIBS and Dacron films (thicker, lower surface area coating))	Coating retained over time ([9]; drop coated on fibrous Dacron mesh (thin, high surface area coating))	Cumulative drug release from the coated surface ([2]; drop coated from DCM onto glass vial, PBS at 37 C with buffer changes)
C[C@@H]1C[C@H]2[C@@H]3CCC4=CC(=O)C=C[C@]4(C)[C@@]3(F)[C@@H](O)C[C@]2(C)[C@@]1(O)C(=O)COC(=O)OCCOCCOCCOC(=O)OCC(=O)[C@@]1(O)[C@H](C)C[C@H]2[C@@H]3CCC4=CC(=O)C=C[C@]4(C)[C@@]3(F)[C@@H](O)C[C@@]21C [Compound 1, dexamethasone-triethylene glycol-dexamethasone]	sustained release	surface erosion	slow, sustained drug release	sustained dexamethasone release	no changes	no changes in release properties	reduced	statistically thinner	similar	Skin bleaching was noted	lower and longer sustained release	quick release of coating from the surface	–
dexamethasone-hexane-dexamethasone [Compound 4]	–	–	–	–	–	–	–	statistically thinner	–	–	–	–	–
hydrocortisone-triethylene glycol-hydrocortisone [Compound 2]	–	–	–	–	–	–	–	–	–	–	–	–	consistent drug release
